In PubChem BioAssay AID180 (DTP/NCI, 2004):
Values joined by “and” are separate entries in the source; they are usually repeats but may differ in a detail not shown here. Identical values can stand only once.

Test system: BDF1 mice, Adenocarcinoma 755 s.c., tumor weight T/C
Experiment: NCI In Vivo Anticancer Drug Screen. Data for tumor model Adenocarcinoma 755 (subcutaneous) in B6D2F1 (BDF1) mice
Conditions: endpoint: mean tumor weight, higher = larger tumour
Outline: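 In vivo antitumor screen on a transplantable tumor line. Result equals the measure in compound-treated animals divided by the same measure in vehicle controls.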

S=c1nc[nH]c2nc[nH]c12
T/C (dose: 0.01 mg/kg/injection, schedule: Q01DX011 (ip), vehicle: carboxymethylcellulose (CMC)): 161 % of control | T/C (dose: 0.4 mg/kg/injection, schedule: Q01DX011 (ip), vehicle: carboxymethylcellulose (CMC)): 110 % of control | T/C (dose: 0.5 mg/kg/injection, schedule: Q01DX011 (ip), vehicle: saline): 13 % of control | T/C (dose: 0.69 mg/kg/injection, schedule: Q01DX011 (ip), vehicle: carboxymethylcellulose (CMC)): 9 % of control | T/C (dose: 0.75 mg/kg/injection, schedule: Q01DX011 (ip), vehicle: carboxymethylcellulose (CMC)): 4 % of control | T/C (dose: 0.87 mg/kg/injection, schedule: Q01DX011 (ip), vehicle: saline): 21 % of control | T/C (dose: 0.9 mg/kg/injection, schedule: Q01DX011 (ip), vehicle: carboxymethylcellulose (CMC)): 31 % of control | T/C (dose: 1.0 mg/kg/injection, schedule: Q01DX007 (ip), vehicle: carboxymethylcellulose (CMC)): 23 % of control | T/C (dose: 1.0 mg/kg/injection, schedule: Q01DX011 (ip), vehicle: saline): 2 % of control and 16 % of control and 27 % of control | T/C (dose: 1.07 mg/kg/injection, schedule: Q01DX011 (ip), vehicle: carboxymethylcellulose (CMC)): 32 % of control | T/C (dose: 1.25 mg/kg/injection, schedule: Q01DX011 (ip), vehicle: carboxymethylcellulose (CMC)): 3 % of control and 11 % of control | T/C (dose: 1.38 mg/kg/injection, schedule: Q01DX011 (ip), vehicle: carboxymethylcellulose (CMC)): 4 % of control | T/C (dose: 1.5 mg/kg/injection, schedule: Q01DX011 (ip), vehicle: alkali diluted with saline): 8 % of control | T/C (dose: 1.5 mg/kg/injection, schedule: Q01DX011 (ip), vehicle: saline): 3 % of control and 7 % of control | T/C (dose: 1.75 mg/kg/injection, schedule: Q01DX011 (ip), vehicle: saline): 13 % of control | T/C (dose: 1.75 mg/kg/injection, schedule: Q01DX011 (oral), vehicle: saline): 22 % of control | T/C (dose: 1.8 mg/kg/injection, schedule: Q01DX011 (ip), vehicle: carboxymethylcellulose (CMC)): 4 % of control and 15 % of control | T/C (dose: 2.0 mg/kg/injection, schedule: Q01DX007 (ip), vehicle: carboxymethylcellulose (CMC)): 2 % of control and 9 % of control | T/C (dose: 2.0 mg/kg/injection, schedule: Q01DX011 (ip), vehicle: alkali diluted with saline): 2 % of control | T/C (dose: 2.14 mg/kg/injection, schedule: Q01DX011 (ip), vehicle: carboxymethylcellulose (CMC)): 9 % of control | T/C (dose: 2.5 mg/kg/injection, schedule: Q01DX011 (oral), vehicle: alkali diluted with saline): 4 % of control | T/C (dose: 2.67 mg/kg/injection, schedule: Q01DX011 (ip), vehicle: carboxymethylcellulose (CMC)): 20 % of control | T/C (dose: 2.75 mg/kg/injection, schedule: Q01DX011 (ip), vehicle: carboxymethylcellulose (CMC)): 3 % of control | T/C (dose: 3.0 mg/kg/injection, schedule: Q01DX011 (ip), vehicle: carboxymethylcellulose (CMC)): 1 % of control and 2 % of control and 6 % of control | T/C (dose: 3.0 mg/kg/injection, schedule: Q01DX011 (ip), vehicle: saline): 1 % of control | T/C (dose: 3.5 mg/kg/injection, schedule: Q01DX011 (ip), vehicle: saline): 4 % of control | T/C (dose: 3.5 mg/kg/injection, schedule: Q01DX011 (oral), vehicle: saline): 8 % of control | T/C (dose: 4.0 mg/kg/injection, schedule: Q01DX011 (ip), vehicle: carboxymethylcellulose (CMC)): 7 % of control | T/C (dose: 4.0 mg/kg/injection, schedule: Q01DX011 (ip), vehicle: saline): 5 % of control | T/C (dose: 4.28 mg/kg/injection, schedule: Q01DX011 (ip), vehicle: carboxymethylcellulose (CMC)): 4 % of control and 9 % of control | T/C (dose: 5.0 mg/kg/injection, schedule: Q01DX007 (ip), vehicle: carboxymethylcellulose (CMC)): 8 % of control | T/C (dose: 5.0 mg/kg/injection, schedule: Q01DX011 (ip), vehicle: alkali diluted with saline): 4 % of control | T/C (dose: 5.35 mg/kg/injection, schedule: Q01DX011 (ip), vehicle: carboxymethylcellulose (CMC)): 7 % of control and 17 % of control | T/C (dose: 5.5 mg/kg/injection, schedule: Q01DX011 (ip), vehicle: carboxymethylcellulose (CMC)): 4 % of control and 6 % of control | T/C (dose: 6.0 mg/kg/injection, schedule: Q01DX011 (ip), vehicle: alkali diluted with saline): 4 % of control | T/C (dose: 6.0 mg/kg/injection, schedule: Q01DX011 (ip), vehicle: saline): 1 % of control and 5 % of control | T/C (dose: 7.0 mg/kg/injection, schedule: Q01DX011 (oral), vehicle: saline): 10 % of control | T/C (dose: 7.13 mg/kg/injection, schedule: Q01DX011 (ip), vehicle: carboxymethylcellulose (CMC)): 8 % of control
